pKi: −log10 of the molar value. Some results are limits rather than exact numbers.

One test has as its target Cholinesterase (Homo sapiens, UniProt P06276). Put plainly: Inhibition of human plasma BChE by Ellman's method.
A further test has as its target Acetylcholinesterase (Homo sapiens, UniProt P22303). The experiment in a line: Inhibition of human recombinant AChE by Ellman's method.

Cholinesterase, sequence (P06276 whole entry): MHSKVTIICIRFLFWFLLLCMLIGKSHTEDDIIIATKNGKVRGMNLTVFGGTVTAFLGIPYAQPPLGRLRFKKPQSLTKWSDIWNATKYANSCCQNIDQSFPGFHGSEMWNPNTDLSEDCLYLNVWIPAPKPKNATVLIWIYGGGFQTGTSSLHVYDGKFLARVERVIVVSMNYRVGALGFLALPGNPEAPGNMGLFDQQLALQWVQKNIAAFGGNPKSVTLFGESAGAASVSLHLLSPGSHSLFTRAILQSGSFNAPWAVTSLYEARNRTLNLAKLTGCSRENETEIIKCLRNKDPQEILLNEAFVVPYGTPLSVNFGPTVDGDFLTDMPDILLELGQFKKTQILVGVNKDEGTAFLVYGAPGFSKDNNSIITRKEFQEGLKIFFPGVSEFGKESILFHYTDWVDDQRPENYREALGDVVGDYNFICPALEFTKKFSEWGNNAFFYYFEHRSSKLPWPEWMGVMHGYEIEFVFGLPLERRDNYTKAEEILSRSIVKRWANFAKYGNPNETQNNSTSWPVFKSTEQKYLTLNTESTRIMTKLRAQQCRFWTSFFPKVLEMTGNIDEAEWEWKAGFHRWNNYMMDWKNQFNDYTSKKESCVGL
Acetylcholinesterase, sequence (P22303 whole entry): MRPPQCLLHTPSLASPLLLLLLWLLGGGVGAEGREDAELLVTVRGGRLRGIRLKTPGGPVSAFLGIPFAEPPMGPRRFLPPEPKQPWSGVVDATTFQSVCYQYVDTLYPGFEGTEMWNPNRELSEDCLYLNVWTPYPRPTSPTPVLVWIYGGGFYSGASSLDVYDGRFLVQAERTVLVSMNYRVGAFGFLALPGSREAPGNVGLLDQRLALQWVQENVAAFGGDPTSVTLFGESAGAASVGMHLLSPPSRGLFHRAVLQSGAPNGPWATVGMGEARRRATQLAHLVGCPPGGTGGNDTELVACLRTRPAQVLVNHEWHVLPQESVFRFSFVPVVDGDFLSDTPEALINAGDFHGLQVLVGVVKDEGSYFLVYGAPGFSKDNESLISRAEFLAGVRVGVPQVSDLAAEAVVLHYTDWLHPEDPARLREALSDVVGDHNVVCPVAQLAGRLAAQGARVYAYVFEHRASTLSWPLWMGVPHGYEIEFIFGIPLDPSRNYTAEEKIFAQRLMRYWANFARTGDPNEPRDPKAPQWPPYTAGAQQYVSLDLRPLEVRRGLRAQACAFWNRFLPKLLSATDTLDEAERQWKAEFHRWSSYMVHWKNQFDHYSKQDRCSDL

Take `O=c1c(O)c(-c2cc(O)c(O)c(O)c2)oc2cc(O)cc(O)c12`: the pKi is 4.15 at Cholinesterase and 4.42 at Acetylcholinesterase.

For the molecule `C[C@@H]1O[C@@H](OC[C@H]2O[C@@H](Oc3c(-c4ccc(O)c(O)c4)oc4cc(O)cc(O)c4c3=O)[C@H](O)[C@@H](O)[C@@H]2O)[C@H](O)[C@H](O)[C@H]1O` [3-Rhamnoglucosylquercetin], the pKi was 3.30 on Cholinesterase and less than 3.52 on Acetylcholinesterase.

As for `O=c1c(O)c(-c2ccc(O)cc2)oc2cc(O)cc(O)c12`, the pKi at Cholinesterase was 4.37; at Acetylcholinesterase, 4.03.

In the case of `O=c1c(O)c(-c2ccc(O)c(O)c2)oc2cc(O)cc(O)c12` [2-(3,4-dihydroxyphenyl)-3,5,7-trihydroxy-chromone;hydrate], the pKi at Cholinesterase was 4.17; at Acetylcholinesterase it was 4.42.

Turning to `O=c1cc(-c2ccc(O)c(O)c2)oc2cc(O)cc(O)c12` [2-(3,4-dihydroxyphenyl)-5,7-dihydroxy-4H-chromen-4-one], the pKi on Cholinesterase is 3.78; at Acetylcholinesterase, 4.18.

Consider `O=c1cc(-c2ccc(O)cc2)oc2cc(O)cc(O)c12` [Naringenin, 18], for which the figures for the pKi at Cholinesterase and at Acetylcholinesterase were 4.43 and 3.92, respectively.

`O=c1c(O)c(-c2ccccc2)oc2cc(O)cc(O)c12` [norizalpinin]: the pKi at Cholinesterase is 5.16; at Acetylcholinesterase, 4.07.

As to `O=c1c(O)c(-c2ccc(O)c(O)c2)oc2cc(O)ccc12` [2-(3,4-dihydroxyphenyl)-3,7-dihydroxy-chromen-4-one], the values for the pKi at Cholinesterase and at Acetylcholinesterase were 4.05 and 4.00, respectively.

(Values after BindingDB's records for doi:10.1016/j.ejmech.2009.09.041 (Institute For Medical Research and Occupational Health, 2010).)
